Assay results from patent publication US5206234A, “Benzolactam analogs as antagonists of CCK” (priority 1991, dated 1993).
One block for each molecule: values may come before it.

Assays:
CCK-A receptors = details: cited from earlier work
[1] = tested on: exploratory behavior of the rat; test: Exploratory behavior in automated activity cages, novel environment; assay type: in vivo, rat (Male Sprague Dawley)
Method: (§1) B. The effects of CCK-8 and compound A on the exploratory behavior of the rat were examined in automated activity cages and by direct observation. It is known that exogenous CCK-8 decreases exploratory behavior in rats in a novel environment by accelerating the process of habituation. [See Crawley, Pharm. Biochem & Behav. 20, 23-27 (1984).]
Expt 1. Male Sprague Dawley rats were injected ([…].) with CCK-8 and immediately placed in automated activity cages. Activity was measured for 30 minutes past injection.
Expt 2. Male SD rats were injected (s.c.) with the CCK antagonist compound A (0.0001-10 mg/kg) and immediately placed in the automated activity cages.

anxiety (mice) = test: Black/white exploration test (anxiolytic activity); assay type: in vivo, mouse (male DBA2)
Text: The black/white exploration test [Crawley et al. Pharmacology, Biochemistry and Behav. 13, 167 (1980)] is a simple animal model of anxiety. Rodents placed in a two compartment box which consists of a brightly lit, white painted side and a dimly lit, black painted side, display a marked preference for the black side of the apparatus. This behavior is caused by the aversive properties of the brightly lit, white painted section. Classical anxiolytic drugs [such as diazepam, see Crawley, supra] and novel anxiolytic drugs [such as 5HT3 antagonists, see Jones et al. Br. J. Pharm.
A. Naive male DBA2 mice (25-30) were housed on a reversed light/dark cycle and tested during the dark phase of the cycle under dim red light. The apparatus consisted of an open topped box (40 cm long×27 cm wide×27 cm high) divided into a small area (2/5) and a large area (3/5) by a partition that extended 20 cm above the walls. There was a 7.5×7.5 cm opening in the partition at floor level. The small compartment was painted black and the large compartment white. The floor of each compartment was marked into 9 cm squares. The white compartment was illuminated by a 100 W tungsten bulb 17 cm above the box and the black compartment by a similarly placed 60 W red bulb.
Animals that had been injected with drug or vehicle were placed individually into the centre of the white area and their behavior observed during a 5 minute period by remote video recording. Four behavioral parameters were recorded every minute: the number of exploratory rears in the white and black sections, the number of line crossings in the black and white sections, the number of transitions between the two sections and the time spent in the black and white sections. Animals were tested in treatment groups of 8-10 and vehicle controls were run on each test day. Data were analysed by ANOVA and Dunnetts test.

[2] = tested on: exploratory behavior of the rat; test: Exploration in a novel environment by direct observation (perspex cage); assay type: in vivo; details: 0.1 mg/kg
Text: as §1
Expt 3. In order to assess further the effect of Compound A on exploration in a novel environment, the motoric hehaviors of rats placed in a perspex cage was recorded by direct observation for a 15 minute period 15 minutes after treatment with Compound A.
Experimenters (unaware of the treatments the animals had received) recorded the frequency and duration of rearing, sniffing, grooming and cage crossing using a keypad interfaced to a BBC microcomputer.

[3] = molecular target: T1, CCK receptor (Brain, cerebral cortex) (Cavia porcellus, UniProt H0VZC5); test: CCK Receptor Binding (Brain), inhibition of 125I-CCK-33 binding; set-up: species or system guinea pig (Male Hartley); details: head prints ^25 I-CCK; guinea pig cerebral cortex
T1 construct: Cerebral cortex was dissected and used as a receptor source; from tissue; host or cells: cerebral cortex membranes of male Hartley guinea pigs
T1 sequence (H0VZC5 1-426): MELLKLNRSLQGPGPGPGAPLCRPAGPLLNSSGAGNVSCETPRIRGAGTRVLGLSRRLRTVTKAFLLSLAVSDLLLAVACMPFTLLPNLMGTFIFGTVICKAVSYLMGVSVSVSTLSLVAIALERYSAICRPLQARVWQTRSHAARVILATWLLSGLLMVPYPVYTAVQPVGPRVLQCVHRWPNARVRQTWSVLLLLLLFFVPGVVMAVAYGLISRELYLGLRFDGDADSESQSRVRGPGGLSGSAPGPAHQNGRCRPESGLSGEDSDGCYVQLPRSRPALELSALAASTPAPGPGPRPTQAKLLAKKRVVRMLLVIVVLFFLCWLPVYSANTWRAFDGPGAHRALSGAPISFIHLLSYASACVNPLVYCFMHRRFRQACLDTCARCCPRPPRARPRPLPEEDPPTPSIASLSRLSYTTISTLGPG
Method: CCK-33 was radiolabeled and the binding was performed according to the description for the pancreas method with modifications according to Saito et al., J. Neurochem. 37:483-490, 1981.
Male Hartley guinea pigs (300-500 g) were sacrificed by decapitation and the brains were removed and placed in ice-cold 50 mM Tris HCl plus 7.58 g/l Trizma-7.4 (pH 7.4 at 25° C.). Cerebral cortex was dissected and used as a receptor source. Each gram of fresh guinea pig brain tissue was homogenized in 10 ml of Tris/Trizma buffer with a Brinkman polytron PT-10. The homogenates were centrifuged at 42,000 g for 15 minutes. Pellets were resuspended in Tris Buffer, centrifuged as above and resuspended in 200 volumes of binding assay buffer (10 mM N-2-hydroxyethyl-piperazine-N'-2-ethane sulfonic acid (HEPES), 5 mM MgCl2, 0.25 mg/ml bacitracin, 1 mM ethylene glycol-bis-(β-aminoethylether-N,N'-tetraacetic acid) (EGTA), and 0.4% bovine serum albumin (BSA)). […] All assays were run in duplicate or triplicate. The reaction mixtures were incubated at 25° C. for 2 hours and centrifuged in a Beckman Microfuge (4 minutes) immediately after adding 1 ml of ice-cold incubation buffer. The supernatant was aspirated and discarded, pellets were counted with a Beckman gamma 5000.

CCK receptor (Pancreas) = molecular target: T2, CCK receptor (Pancreas) (Rattus norvegicus, UniProt P30551); test: CCK Receptor Binding (Pancreas), inhibition of 125I-CCK-33 binding; set-up: species or system rat (Male Sprague-Dawley); details: 125I-CCK-33, rat pancreas membranes
T2 construct: The whole pancreas was dissected free of fat tissue and was homogenized; from tissue; host or cells: pancreas membranes of male Sprague-Dawley rats
T2 sequence (P30551 1-444): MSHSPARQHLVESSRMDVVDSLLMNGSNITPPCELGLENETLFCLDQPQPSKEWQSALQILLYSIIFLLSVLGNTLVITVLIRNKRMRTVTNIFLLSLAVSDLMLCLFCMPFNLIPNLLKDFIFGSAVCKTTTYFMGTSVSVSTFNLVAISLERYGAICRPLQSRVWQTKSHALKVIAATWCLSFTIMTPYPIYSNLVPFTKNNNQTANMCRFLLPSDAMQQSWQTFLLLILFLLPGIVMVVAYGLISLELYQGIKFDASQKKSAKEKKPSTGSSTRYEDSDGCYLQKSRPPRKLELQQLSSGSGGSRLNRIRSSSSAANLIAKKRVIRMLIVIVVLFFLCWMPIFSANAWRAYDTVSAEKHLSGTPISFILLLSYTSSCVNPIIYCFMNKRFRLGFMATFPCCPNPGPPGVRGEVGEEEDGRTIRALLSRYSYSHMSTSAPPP
Method: CCK-33 was radiolabeled with ^125 I-Bolton Hunter reagent (2000 Ci/mmole) as described by Sankara et al. (J. Biol. Chem. 254: 9349-9351, 1979). Receptor binding was performed according to Innis and Snyder (Proc. Natl. Acad. Sci. 77, 6917-6921, 1980) with the minor modification of adding the additional protease inhibitors, phenylmethane sulfonyl fluoride and o-phenanthroline. The latter two compounds have no effect on the ^125 I-CCK receptor binding assay.
Male Sprague-Dawley rats (200-350 g) were sacrificed by decapitation. The whole pancreas was dissected free of fat tissue and was homogenized in 20 volumes of ice-cold 50 mM Tris HCl (pH 7.7 at 25° C.) with a Brinkmann Polytron PT 10. The homogenates were centrifuged at 48,000 g for 10 min. Pellets were resuspended in Tris Buffer, centrifuged as above and resuspended in 200 volumes of binding assay buffer (50 mM Tris HCl, pH 7.7 at 25° C., 5 mM dithiothrietol, 0.1 mM bacitracin, 1.2 mM phenylmethane sulfonyl fluoride and 0.5 mM o-phenanthroline). […] All assays were run in duplicate or triplicate. The reaction mixtures were incubated at 37° C. for 30 minutes and centrifuged in a Beckman Microfuge (4 minutes) immediately after adding 1 ml of ice-cold incubation buffer. The supernatant was aspirated and discarded, pellets were counted with a Beckman gamma 5000. For Scatchard analysis (Ann. N.Y. Acad. Sci. 51: 660, 1949), ^125 I-CCK-33 was progressively diluted with increasing concentrations of CCK-33.
A Ki value (dissociation constant of inhibitor) of the compounds of Formula I was estimated.

[4] = molecular target: T3, Gastrin receptor (Gastric Glands) (Cavia porcellus, UniProt H0VZC5); test: Gastrin Receptor Binding in Guinea Pig Gastric Glands; set-up: species or system guinea pig (male Hartley); details: head prints ^25 I-Gastrin, read-out: Receptor binding IC50, 125I-Gastrin Gastric Glands
T3 construct: from tissue; host or cells: gastric mucosal glands of male Hartley guinea pigs
T3 sequence (H0VZC5 1-426): T1 sequence (H0VZC5 1-426)
Method: Guinea pig gastric mucosal glands were prepared by the procedure of Berglingh and Obrink Acta Physiol. Scand. 96: 150 (1976) with a slight modification according to Praissman et al. C. J. Receptor Res. 3: (1983). Gastric mucosa from guinea pigs (300-500 g body weight, male Hartley) were washed thoroughly and minced with fine scissors in standard buffer consisting of the following: 130 mM NaCl, 12 mM NaHCO3, 3 mM NaH2 PO4, 3 mM Na2 HPO4, 3 mM K2 HPO4, 2 mM MgSO4, 1 mM CaCl2, 5 mM glucose and 4 mM L-glutamine, 25 mM HEPES at pH 7.4. The minced tissues were washed and then incubated in a 37° C. shaker bath for 40 minutes with the buffer containing 0.1% collagenase and 0.1% BSA and bubbled with 95% O2 and 5% CO2. The tissues were passed twice through a 5 ml glass syringe to liberate the gastric glands, and then filtered through 200 mesh nylon. The filtered glands were centrifuged at 270 g for 5 minutes and washed twice by resuspension and centrifugation.
The washed guinea pig gastric glands prepared as above were resuspended in 25 ml of standard buffer containing 0.25 mg/ml of bacitracin. For binding studies, to 220 μl of gastric glands in triplicate tubes, 10 μl of buffer (for total binding) or gastrin (1 μM final concentration, for nonspecific binding) or test compound and 10 μl of ^125 I-gastrin (NEN, 2200 Ci/mmole, 25 pM final) or ^3 H-pentagastrin (NEN 22 Ci/mmole, 1 nM final) were added. The tubes were aerated with 95% O2 and 5% CO2 and capped. The reaction mixtures after incubation at 25° C. for 30 minutes were filtered under reduced pressure on glass G/F B filters (Whatman) and immediately washed further with 4×4 ml of standard buffer containing 0.1% BSA. The radioactivity on the filters was measured using a Beckman gamma 5500 for ^125 I-gastrin or liquid scintillation counting for ^3 H-pentagastrin.

CCK-B receptors = details: cited from earlier work

Molecule: CSCC[C@H](NC(=O)[C@H](Cc1ccc(O)cc1)NC(=O)[C@@H](N)CC(=O)O)C(=O)NCC(=O)N[C@@H](Cc1c[nH]c2ccccc12)C(=O)N[C@@H](CCSC)C(=O)N[C@@H](CC(=O)O)C(=O)N[C@@H](Cc1ccccc1)C(N)=O [CCK-8d]
- Affinity for CCK-A receptors (CCK-A receptors): lower affinity

Molecule: CN1C(=O)[C@@H](NC(=O)c2cc3ccccc3[nH]2)N=C(c2ccccc2)c2ccccc21 [Compound A, 3(S)-(-)-1,3-dihydro-3-(2-indolecarbonylamino)-1-methyl-5-phenyl-2H-1,4-benzodiazepin-2-one]
- Habituation and period of exploratory activity ([1]; 0.0001-10 mg/kg s.c., F(6,124)=2.54, p<0.05): delayed habituation and prolonged the period of exploratory activity of the rats
- Level of activity at 25 minutes ([1]; 0.1 mg/kg s.c., 25 minutes, F(6.124)=3.18, p<0.01): significantly above controls
- Level of activity at 25 minutes ([1]; doses higher and lower than 0.1 mg/kg, bell-shaped dose response): no significant effect on activity
- Preference for locomotion (line crossings) in the black side (anxiety (mice); 0.5, 5.0 and 500 ug/kg): abolished the preference for locomotion (line crossings) in the black side
- Difference in time spent in the black and white side (anxiety (mice); 5.0 and 500 ug/kg): abolished
- Active dose range (anxiety (mice); black/white exploration test, mice): 0.05 to 5.0 µg/kg
- Preference for rearing in the black side (anxiety (mice); doses of 0.05, 0.5, 5.0 and 500 ug/kg): significantly decreased the preference for rearing in the black side
- Cage crossing ([2]; F(3,43)=3.79, P<0.05): significantly increased
- Sniffing ([2]; F(3,43)=3.96, P<0.01): significantly increased
- Rearing ([2]; F(3,43)=4.77, P<0.01): significantly increased

- IC50 [3]: 0.65 µM
- IC50 (CCK receptor (Pancreas)): 1.7 µM
- IC50 [4]: 0.46 µM
Molecule: O=C(Nc1cccc2ccccc12)NC1CCc2ccccc2N(CC(=O)N2CCCC2)C1=O (stereo not shown) [Example 11, 1-{[2,3,4,5-Tetrahydro-3-{[[(1-naphthalenyl)amino]carbonyl]amino}-2-oxo-1H-1-benzazepin-1-yl]acetyl}pyrrolidine]

- IC50 [3]: 0.66 µM
- IC50 (CCK receptor (Pancreas)): 0.17 µM
- IC50 [4]: 0.13 µM
Molecule: Cc1ccc(NC(=O)NC2CCc3ccccc3N(CC(=O)OC(C)(C)C)C2=O)cc1 (stereo not shown) [Example 12]

Molecule: CSCC[C@H](NC(=O)[C@H](Cc1c[nH]c2ccccc12)NC(=O)CCNC(=O)OC(C)(C)C)C(=O)N[C@@H](CC(=O)O)C(=O)N[C@@H](Cc1ccccc1)C(N)=O [pentagastrin]
- Affinity for CCK-B receptors (CCK-B receptors): high affinity

Molecule: gastrin: structurally related neuropeptides which exist in gastrointestinal tissue and in the central nervous system
- Affinity for CCK-A receptors (CCK-A receptors): lower affinity
